Entries after “also recorded” stand apart in the source; their conditions may differ.
Legend:
purified FLAG-ATR = biological target: T1, purified FLAG-ATR (Homo sapiens, UniProt Q13535); experiment: ELISA-based kinase activity: phosphorylation of p53 S15 by purified FLAG-ATR in vitro; assay type: biochemical; conditions: FIG. 3
T1 construct: FLAG
Text: ELISA-based kinase activity was used to test the ability of compounds to inhibit phosphorylation of p53 S15 by purified FLAG-ATR in vitro.

[1] = system: HCT116 cells with and without p53; experiment: Western blot of marker expression (p21) in HCT116 cells with and without p53; assay type: cell-based; conditions: HCT116 cells with and without p53, treated 30 hrs, FIG. 4
Experimental: HCT116 cells with and without p53 were treated with compounds for 30 hrs. Expression levels of indicated markers were determined by western blot.

TAF1-2 = biological target: T2, TAF1-2 (Homo sapiens, UniProt P21675); experiment: DSF for TAFi with TAF1-2; assay type: binding; conditions: protein TAF1-2, DMSO = 0
T2 construct: a tandem bromodomain (BD1 and BD2)
T2 sequence (P21675 1519-1628 limits assumed): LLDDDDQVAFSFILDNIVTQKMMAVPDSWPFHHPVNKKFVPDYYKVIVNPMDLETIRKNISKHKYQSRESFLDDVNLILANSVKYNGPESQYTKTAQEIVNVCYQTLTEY

T1 sequence (Q13535 whole entry): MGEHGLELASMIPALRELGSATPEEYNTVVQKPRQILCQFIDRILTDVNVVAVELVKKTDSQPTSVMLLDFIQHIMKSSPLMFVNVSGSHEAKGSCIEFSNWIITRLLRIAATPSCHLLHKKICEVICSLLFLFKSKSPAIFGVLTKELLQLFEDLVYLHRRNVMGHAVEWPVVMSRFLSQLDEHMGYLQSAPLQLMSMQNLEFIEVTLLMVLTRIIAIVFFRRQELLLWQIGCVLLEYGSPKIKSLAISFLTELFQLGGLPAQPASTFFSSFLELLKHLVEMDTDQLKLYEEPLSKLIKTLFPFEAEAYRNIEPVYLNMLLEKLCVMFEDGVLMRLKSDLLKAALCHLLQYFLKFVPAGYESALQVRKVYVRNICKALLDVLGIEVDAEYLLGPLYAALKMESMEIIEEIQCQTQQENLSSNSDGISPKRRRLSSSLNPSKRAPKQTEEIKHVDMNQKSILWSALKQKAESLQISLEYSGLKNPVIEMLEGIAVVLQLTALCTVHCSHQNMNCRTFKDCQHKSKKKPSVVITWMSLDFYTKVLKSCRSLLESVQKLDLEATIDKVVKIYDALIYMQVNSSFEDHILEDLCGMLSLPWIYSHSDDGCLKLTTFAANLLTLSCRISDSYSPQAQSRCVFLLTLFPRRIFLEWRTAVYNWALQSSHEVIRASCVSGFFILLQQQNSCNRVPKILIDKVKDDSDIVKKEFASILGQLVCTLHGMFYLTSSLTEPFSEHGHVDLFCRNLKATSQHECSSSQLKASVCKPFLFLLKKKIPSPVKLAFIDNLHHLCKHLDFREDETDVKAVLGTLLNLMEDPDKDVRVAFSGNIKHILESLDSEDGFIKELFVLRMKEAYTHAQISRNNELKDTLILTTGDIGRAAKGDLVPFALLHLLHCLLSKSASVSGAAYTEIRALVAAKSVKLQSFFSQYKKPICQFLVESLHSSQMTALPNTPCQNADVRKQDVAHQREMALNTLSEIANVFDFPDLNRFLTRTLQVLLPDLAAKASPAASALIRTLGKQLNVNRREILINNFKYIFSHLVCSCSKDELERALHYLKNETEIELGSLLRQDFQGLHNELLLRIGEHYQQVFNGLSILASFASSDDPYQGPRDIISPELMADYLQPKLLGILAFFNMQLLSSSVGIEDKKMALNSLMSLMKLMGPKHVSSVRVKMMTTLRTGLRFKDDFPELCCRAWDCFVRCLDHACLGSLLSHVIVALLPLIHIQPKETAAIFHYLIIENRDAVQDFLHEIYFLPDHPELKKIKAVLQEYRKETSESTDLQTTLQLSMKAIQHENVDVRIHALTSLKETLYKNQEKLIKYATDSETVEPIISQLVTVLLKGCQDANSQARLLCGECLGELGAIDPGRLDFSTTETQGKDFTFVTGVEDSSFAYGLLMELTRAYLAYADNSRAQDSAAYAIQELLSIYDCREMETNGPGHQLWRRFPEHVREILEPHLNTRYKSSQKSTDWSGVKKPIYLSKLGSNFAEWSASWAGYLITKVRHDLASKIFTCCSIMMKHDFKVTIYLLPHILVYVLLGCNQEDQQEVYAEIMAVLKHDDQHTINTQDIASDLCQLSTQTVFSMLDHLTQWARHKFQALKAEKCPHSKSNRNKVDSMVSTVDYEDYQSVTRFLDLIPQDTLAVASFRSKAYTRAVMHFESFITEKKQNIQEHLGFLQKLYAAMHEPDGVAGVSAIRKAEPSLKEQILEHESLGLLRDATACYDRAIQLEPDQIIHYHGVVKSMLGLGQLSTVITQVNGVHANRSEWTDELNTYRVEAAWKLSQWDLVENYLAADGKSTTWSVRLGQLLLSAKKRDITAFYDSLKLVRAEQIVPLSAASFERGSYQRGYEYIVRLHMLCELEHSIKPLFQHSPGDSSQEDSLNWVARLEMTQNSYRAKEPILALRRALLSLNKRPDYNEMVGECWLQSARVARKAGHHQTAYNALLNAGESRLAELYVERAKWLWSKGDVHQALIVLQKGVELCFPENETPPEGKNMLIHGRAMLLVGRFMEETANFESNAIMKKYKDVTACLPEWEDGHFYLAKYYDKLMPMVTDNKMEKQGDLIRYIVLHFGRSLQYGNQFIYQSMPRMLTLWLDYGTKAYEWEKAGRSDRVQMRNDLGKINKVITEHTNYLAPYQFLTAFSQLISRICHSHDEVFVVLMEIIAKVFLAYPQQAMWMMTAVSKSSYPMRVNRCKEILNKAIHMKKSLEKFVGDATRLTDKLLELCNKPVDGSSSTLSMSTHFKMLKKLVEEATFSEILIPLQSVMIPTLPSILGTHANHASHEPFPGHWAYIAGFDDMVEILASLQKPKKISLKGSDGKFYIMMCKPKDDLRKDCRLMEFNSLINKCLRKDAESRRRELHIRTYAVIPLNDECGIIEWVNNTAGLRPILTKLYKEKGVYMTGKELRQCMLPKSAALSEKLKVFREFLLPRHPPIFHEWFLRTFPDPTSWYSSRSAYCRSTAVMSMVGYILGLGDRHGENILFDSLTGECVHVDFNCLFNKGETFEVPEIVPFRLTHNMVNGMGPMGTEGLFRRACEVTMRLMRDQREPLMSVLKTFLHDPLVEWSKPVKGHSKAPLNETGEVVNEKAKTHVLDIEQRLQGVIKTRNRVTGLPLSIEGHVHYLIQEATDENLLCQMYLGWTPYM

SMILES	inhibition of ATR (phosphorylation of p53 S15) (purified FLAG-ATR)	p53-mediated p21 expression [1]	ATm + SEM (° C.) (TAF1-2)
C=CCCn1cc(-c2cc(C3([S@](C)(=N)=O)CC3)nc(-c3ccnc4[nH]ccc34)n2)c2cc[nH]c2c1=O [ZS1-681]	does not inhibit ATR; also recorded: absence of inhibition	induces p53-mediated p21 expression	
C[C@@H]1COCCN1c1cc(C2([S@](C)(=N)=O)CC2)nc(-c2cc[nH]c3nccc2-3)n1 [AZD6738]			3.4 ± 0.1 °C
C=CCCn1cc(-c2cc(C(=O)N3CCOCC3)cc3c2ncn3C)c2cc[nH]c2c1=O [GNE-371, reference compound]	absence of inhibition		
